Measurements as given in the METLIN SMRT retention time set (Domingo-Almenara et al. 2019).

assay: gradient 5% acetonitrile 3 min, to 50% in 2 min, to 85% in 15 min, held 3 min, 100 µL/min; settings: column: Zorbax Extend-C18 2.1 x 50 mm; eluents: water / acetonitrile, 0.1% formic acid
Outline: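 The mobile phases were water and acetonitrile, each with 0.1% formic acid, pumped at 100 μL/min through a Zorbax Extend-C18 column (2.1 × 50 mm, 1.8 μm). Pure standards were injected as mixtures of ~100 molecules and detected by a quadrupole time-of-flight mass spectrometer in positive and negative ionization mode. Retention time came from computationally picked adduct peaks, each inspected by hand.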

| RP-LC retention time [s] | Structure (SMILES) |
| --- | --- |
| 998 | CCc1cc(C(=O)Nc2cccc(F)c2)nc2ccnn12 |
| 991 | Cc1ccc(C)c(N2C(=O)CN(S(=O)(=O)c3ccccc3)CC2(C)C(=O)NC2CCCC2)c1 (stereo not drawn) |
| 970 | O=C(NC1CC1)C1CCN(c2ncccc2-c2nc(-c3ccc(Cl)cc3)no2)CC1 |
| 703 | CC(C)COC(=O)Nc1nc(CC(=O)Nc2ccccc2C(N)=O)cs1 |
| 606 | O=C(Cn1nc2c(cc1=O)CCCC2)Nc1nc(-c2ccncc2)cs1 |
| 1030 | CC(C)N1C(=O)C(C)(C(=O)Nc2ccc(F)c(F)c2)Oc2cccnc21 (stereo not drawn) |
| 815 | CCn1cc(C)c(C(=O)O)c1CC(=O)N1CCc2ccccc21 |
| 697 | Cc1cc(C)cc(NC(=O)NC2CCN(c3ccccc3)C2=O)c1 (stereo not drawn) |
| 897 | COc1ccc(N2CCN(c3cc(SCC(=O)NCc4ccc(SC)cc4)ncn3)CC2)cc1 |
| 608 | CS(=O)(=O)c1ccc(NC(=O)CSc2ccc(N3CCCC(C(=O)NC4CC4)C3)nn2)cc1 (stereo not drawn) |
| 673 | CCc1nc2c(=O)n(CC(=O)N3CCCCC3)nc(C)c2s1 |
| 678 | Cc1ccccc1NS(=O)(=O)c1cc(-c2[nH]ncc2C(=O)N2CCOCC2)oc1C |
| 847 | Cc1ccc(CNC(=O)CNS(=O)(=O)c2cc(-c3noc(C)n3)sc2C)cc1 |
| 1110 | COc1c(C(=O)NC(C)(C)C)sc2cccc(F)c12 |
| 772 | Cc1nnc(-c2nnc(NCC3CCCCC3)c3ccccc23)o1 |
| 808 | Cc1ccc(-c2csc(NC3OC(=O)c4ccccc43)n2)cc1C (stereo not drawn) |
| 638 | COc1ccc(C(=O)NCc2ccc(OCCN(C)C)cc2)cc1OC |
| 714 | CCn1ncc(C(=O)N2CC(n3cc(COc4ccc(F)cc4)nn3)C2)c1C |

| RP-LC retention time [s] | Structure (SMILES) |
| --- | --- |
| 800 | COCCC1CCN(C(=O)COc2ccccc2)CC1 |
| 596 | CN1CCN(C(=O)C2CCN(S(=O)(=O)c3ccc4c(c3)sc(=O)n4C)CC2)CC1 |
| 835 | CNC(=O)N1CCCC(c2cccc(C(=O)NCc3ccc(OC(C)C)cc3)c2)C1 (stereo not drawn) |
| 912 | O=S(=O)(CCc1noc(-c2ccc3cc[nH]c3c2)n1)c1ccccc1 |
| 784 | CCn1c(N2CCC(C(=O)NC3CCCCC3)CC2)cc(=O)n(C)c1=O |
| 687 | CC1CN2C=NC(N3CCN(C(=O)Nc4ccc(C(F)(F)F)cc4)CC3)=CC2=N1 (stereo not drawn) |
| 767 | COc1c2c(c(OC)c3c1c(=O)c1ccccc1n3C)OCO2 |
| 764 | CCC(=O)N(C1CCOCC1)C1CCN(S(=O)(=O)c2ccccc2)CC1 |
| 639 | CCN1CCN(C(=O)CN2c3ccc(F)cc3-c3ccccc3S2(=O)=O)CC1 |
| 1320 | COc1ccc(-c2ccnn2-c2ccc(SCc3ccccc3)nn2)cc1 |
| 655 | Cn1nc(CN2CCCC2)c2c1CCN(S(=O)(=O)c1ccccc1C(F)(F)F)C2 |
| 965 | CCCn1c(=O)sc2cc(S(=O)(=O)N3CCC(C(=O)Nc4ccccc4)CC3)ccc21 |
| 757 | COCCN(CC(=O)N1CCc2sccc2C1COc1ccccc1OC)C(C)=O (stereo not drawn) |
| 843 | Cc1cc2cc(CNC(=O)Nc3cccc(Cl)c3)ccc2[nH]1 |
| 626 | CCCS(=O)(=O)N1CC[C@@H]2COCCN(Cc3ccccc3)[C@@H]2C1 |
| 1090 | Cc1ccc(-n2nc(CO)c(C(=O)NC3CCCC3)n2)cc1C |
| 777 | Cc1ccc(NC(=O)CN2CCC(c3nc(-c4cccs4)no3)CC2)c(Cl)c1 |

The next lines start with the compound.

| Structure (SMILES) | RP-LC retention time [s] |
| --- | --- |
| O=C(O)C1c2ccccc2CC(=O)N1Cc1ccccc1 (stereo not drawn) | 723 |
| O=C(NC1CCN(c2cc(-c3cccs3)[nH]n2)CC1)c1ccc(F)cc1F | 769 |
| Cc1noc(C)c1S(=O)(=O)N1CCCC(Cn2c(C3CC3)nc3cccnc32)C1 (stereo not drawn) | 720 |
| COc1ccc(C2c3c(oc4ccc(Br)cc4c3=O)C(=O)N2C)cc1OC (stereo not drawn) | 774 |
| CCn1cnc(S(=O)(=O)N2CCC(C(=O)N3CCN(c4cc(Cl)ccc4C)CC3)CC2)c1 | 916 |
| Cc1c(Cl)cccc1S(=O)(=O)NC1CCN(c2ccccc2)C1=O (stereo not drawn) | 970 |
| COc1ccc(CNC(=O)c2c(C)sc3ccn(CC(C)C)c(=O)c23)cc1OC | 865 |
| CCc1ccccc1NC(=O)C(C)n1cnc2nc(N3CCCCC3)ncc2c1=O (stereo not drawn) | 882 |
| Cc1cc2c(cc1C)N(C(=O)CCl)CC(=O)N2 | 745 |
| Cn1c(CC2CCN(S(=O)(=O)Cc3ccc(F)cc3Cl)C2)nc2cccnc21 (stereo not drawn) | 650 |
| Cc1cc(C)c(-c2csc(NC(=O)c3ccccc3[N+](=O)[O-])n2)c(C)c1 | 1070 |
| CSc1ncccc1C(=O)Nc1cccc(OCc2nnc(-c3ccc(Cl)cc3)o2)c1 | 1010 |
| Cc1ccc(-c2cn3c(CC(=O)Nc4ccc5c(c4)OCCO5)csc3n2)cc1C | 806 |
| CCc1cc(C(=O)Cc2nc3ccccc3n2C)c(O)cc1O | 587 |
| Cn1ncc2c(N3CCOCC3)nc(C(=O)NCc3ccccc3)nc21 | 701 |
| COC(=O)c1cn(CC(=O)N2CCc3ccccc3C2)c2ccccc12 | 964 |
| CN(C)CCN(Cc1ccco1)C(=O)Cn1nc(Cc2ccncc2)c2ccccc2c1=O | 548 |

| Structure (SMILES) | RP-LC retention time [s] |
| --- | --- |
| CCN1c2ccc(C)cc2C(=O)NC12CCN(C(=O)c1ccc(Br)cc1)CC2 | 902 |
| CCOC(=O)C1CCN(C(=O)Cc2c(C(=O)O)c(C)cn2CC)CC1 | 715 |
| CC(C)OCCCNC(=O)C1CCCN(c2ccc(=O)n(-c3cccc(Cl)c3)n2)C1 (stereo not drawn) | 789 |
| CCNC(=O)CC1=C2CCCCC2N(C)C1=O (stereo not drawn) | 607 |
| COCc1c(C(=O)O)nnn1-c1ccc(C)c(F)c1 | 741 |
| COc1ccccc1C(=O)N1CC(Oc2ccc(-c3nc(-c4ccccc4)no3)cc2)C1 | 1160 |
| CCCc1cc(=O)n(CC(=O)Nc2ncccc2C)cn1 | 578 |
| Clc1ccc(OCc2nnc3sc(-c4ccc5ccccc5n4)nn23)cc1 | 1210 |
| COC(=O)c1ccc(C(=O)N(Cc2ccsc2)Cc2ccco2)cc1 | 832 |
| CC(C)OCCCNC(=O)C1CCCN(S(=O)(=O)c2ccc3c(ccn3C)c2)C1 (stereo not drawn) | 720 |
| CNC(=O)c1ccc(N2C(=S)N(c3cnc(C#N)c(C(F)(F)F)c3)C(=O)C23CCC3)cc1F | 993 |
| COC(=O)COC(=O)c1cn(-c2cccc(F)c2)c(=O)c2ccccc12 | 938 |
| O=C(Nc1ccc(F)c(F)c1)C(=O)c1ccc[nH]1 | 899 |
| CCN(Cc1ccc(OC)cc1)Cc1cc(=O)n2ccc(C)cc2n1 | 619 |
| O=C(C1CCOCC1)N1CCC(Oc2nccnc2N2CCOCC2)C1 (stereo not drawn) | 598 |
| O=C(CCc1nnc2ccc(NCc3ccccc3Cl)nn12)N1CCN(c2ccccn2)CC1 | 613 |
